PMC9960696, “Functional Expression of Recombinant Candida auris Proteins in Saccharomyces cerevisiae Enables Azole Susceptibility Evaluation and Drug Discovery” (Journal of Fungi, 2023)

Target: T1, CauErg11-6×His (Candidozyma auris, UniProt A0A2H1A309)
T1 construct: gene B9J08_03698; full-length, C-terminal GGR linker and 6xHis kept; expressed in S. cerevisiae ADΔΔ (Y2767, native ERG11 deleted); DM-solubilised, Ni-NTA partially purified; mutant Y132F in strain Y2768
Assay: type II difference spectra titration
Type: binding
Description: type II difference spectra titration on CauErg11-6×His

T1 sequence (A0A2H1A309 entry or part of it): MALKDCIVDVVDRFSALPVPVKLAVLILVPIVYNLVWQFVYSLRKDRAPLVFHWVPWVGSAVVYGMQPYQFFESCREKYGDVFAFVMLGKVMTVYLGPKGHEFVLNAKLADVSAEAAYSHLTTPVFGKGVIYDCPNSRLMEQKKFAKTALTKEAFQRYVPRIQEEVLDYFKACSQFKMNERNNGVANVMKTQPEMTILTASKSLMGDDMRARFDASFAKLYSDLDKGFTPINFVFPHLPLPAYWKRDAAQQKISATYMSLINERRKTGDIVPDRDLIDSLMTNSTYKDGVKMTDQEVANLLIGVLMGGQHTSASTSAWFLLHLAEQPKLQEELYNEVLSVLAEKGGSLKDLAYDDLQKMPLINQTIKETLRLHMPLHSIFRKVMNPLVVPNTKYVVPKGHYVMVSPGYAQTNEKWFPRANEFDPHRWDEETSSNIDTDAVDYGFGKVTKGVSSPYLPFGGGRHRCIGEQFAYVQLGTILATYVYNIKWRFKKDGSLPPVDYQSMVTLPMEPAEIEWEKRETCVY

| Structure (SMILES) | Kd |
| --- | --- |
| C[C@@H](c1nc(-c2ccc(C#N)cc2)cs1)[C@](O)(Cn1cncn1)c1cc(F)ccc1F [ISA, Isavuconazole] | 200 nM |
| CC[C@@H]([C@H](C)O)n1ncn(-c2ccc(N3CCN(c4ccc(OC[C@@H]5CO[C@@](Cn6cncn6)(c6ccc(F)cc6F)C5)cc4)CC3)cc2)c1=O [POS, Posaconazole] | 340 nM |
| C[C@@H](c1ncncc1F)[C@](O)(Cn1cncn1)c1ccc(F)cc1F [VRC, Voriconazole] | 740 nM |
